Several values for one entry are separate records, joined by “and”; a condition that tells them apart may be missing. Equal values may be shown once.
How the values were obtained:
[1] = test system: mice, spared nerve injury (SNI) model; assay: SNI model, marble-burying test; format: in vivo, mouse
Protocol: (§1) solution (0.05 mg/kg) injected s.c. 30 min before surgery (10 μL/g). For surgery, mice were anaesthetised with ketamine (100 mg/kg, i.p.) and xylazine (10 mg/kg, i.p.) (volume 10 µL/g) with 100 μL of 1% xylocaine solution infiltrated at the site of the incision. The distal trifurcation of the sciatic nerve was identified, and the tibial and common peroneal branches were ligated with polypropylene nonabsorbable 6-0 sutures (Ethicon) and 1 mm was cut out, leaving the sural branch intact. The wound was closed with sutures, and the animals were allowed to recover and returned to their cages. Two subcutaneous injections of buprenorphine (0.05 mg/kg) were performed with an 8 to 12 hours delay decreasing pain due to the surgery […]
(§2) Wounds were closed with surgical glue or medical clips and animals were monitored daily for signs of stress or discomfort, but in all cases recovered uneventfully. […]
For the first experiment with sustained administration of mPD5 (Figure 7C), the mice underwent a baseline von Frey reading as described in the “Mechanically-evoked pain (von Frey).”-section and SNI surgery as described in “Induction of neuropathic pain (SNI model).”-section. […] At 4,5 hours after the 10 μmol/kg mPD5 injection paw withdrawal threshold was measured again followed by a s.c. injection of 2 μmol/kg mPD5 in all animals. […]

[2] = test system: PICK1-WT and PICK1-KO mice, SNI model; assay: SNI model, von Frey, PICK1-WT and PICK1-KO mice; format: in vivo, mouse; settings: for effect on mechanical hypersensitivity (PWT): s.c.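 As to von Frey paw withdrawal threshold, individual animals (Fig 5F): time points given in hours with 0 hours as the comparison point.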
Protocol: as §1
The remaining SNI pain experiments were performed in-house using the following procedure.
SNI surgery was performed on the left hindleg of C57BL/6J male and female mice (Janvier, France) under 2% isoflurane anaesthesia. Skin on the lateral surface was incised between hip and knee followed by lengthwise division of the biceps femoris muscle leading to exposure of the three branches of the sciatic nerve. Sural branch was left intact, while the peroneal and tibial branches were ligated with a single surgical knot and axotomized distally of the ligation.
as §2
The skin wound was closed with two medical clips (Michel Suture Clips, 7.5x1.75 mm, Angthos, 12040-01). Post-surgical analgesia included s.c. injection of 5 mg/kg carprofen (Carprosan vet, 50 mg/mL mixed 1:25 in sterile ddH2O, Dechra, Le Vet Beheer B.V., Netherlands, Batch: 050520) right after surgery and the […]
following day. […]
The test battery of the CIBP model was carried out 45 or 90 min after morphine and mPD5 administration respectively to accommodate the peak efficacy […]
Mechanically evoked pain (von Frey test).
Unless otherwise specified, von Frey occurred as described in the following. Animals were habituated to the experimental room for a minimum of 60 min before initiation of the experiment. Mechanical paw withdrawal threshold (PWT) was determined by von Frey measurements of both hind paws. Von Frey filaments ranging from 0.04 to 2 g (g = gram- […]
Filaments in ascending order were applied to the frontocentral plantar surface of the hind paws.
Mice were placed in PVC plastic boxes (11.5 cm x 14 cm) on a wire mesh and allowed minimum 20 min habituation prior of experiment initiation. Each von Frey hair was applied five times with adequate resting periods between each application and number of withdrawals recorded. The withdrawal threshold was determined as the von Frey filament eliciting at least three positive trials out of the five applications in two consecutive filaments. A positive trial was defined as sudden paw withdrawal, flinching and/or paw licking induced by the filament.
For the CIBP model, two habituation sessions were performed on separated days with mice placed in the von Frey equipment for 1-1.5 hours in the presence of the experimenter on day one and random von Frey pocking with the 0.6 g filament on day two. Von Frey monofilaments (North Coast Touch Test, North Coast Medical, Inc.) with target forces of 0.04g, 0.07g, 0.16g, […]
down method” (PWT=10Xf+kδ) starting with the 0.6 g filament. Positive response was defined as; withdrawal, shaking or grooming of paw following a 2-3 second stimulation. In case, of unclear response, stimulus was repeated after 10-15 seconds.
For the STZ model, the mechanical threshold response of the injected mice was measured with […]
injection of test compounds on day 14, mechanical threshold was measured at 1 hour, 2 hours, 4 hours and 6 hours and again on day 15. […]
Thermally evoked pain (Hargreaves test).
A baseline Hargreaves test was performed on day 0 before inflammatory pain was induced as described in section 2.13. In the Hargreaves test, the mouse was placed in a container on a glass […]

SMILES: CCCCCCCCCCCCCC(=O)N(CCOCCOCCC(=O)N[C@@H](Cc1c[nH]cn1)C(=O)N[C@@H](Cc1c[nH]c2ccccc12)C(=O)N[C@@H](CC(C)C)C(=O)N[C@@H](CCCCN)C(=O)N[C@H](C(=O)O)C(C)C)CCOCCOCCC(=O)N[C@@H](Cc1c[nH]cn1)C(=O)N[C@@H](Cc1c[nH]c2ccccc12)C(=O)N[C@@H](CC(C)C)C(=O)N[C@@H](CCCCN)C(=O)N[C@H](C(=O)O)C(C)C [mPD5, myristoyl-NPEG4-(HWLKV)2]
- marbles buried, individual mice ([1]; 1 hour after s.c. 10 μmol/kg): 6 and 7 and 9 and 8 and 3 and 1 and 5
- effect on SNI-induced decrease in marble burying ([1]; female mice, s.c. 10 μmol/kg, to the level of the naive mice): reverted significantly
- effect on mechanical hypersensitivity (PWT) ([2]; PICK1-KO mice following SNI surgery): no effect on mechanical hypersensitivity
- von Frey paw withdrawal threshold, individual animals (Fig 5F) ([2]; PICK1-KO, CONTRA, BL): 1.4 (4×) and 2 (2×)
- von Frey paw withdrawal threshold, individual animals (Fig 5F) ([2]; PICK1-KO, CONTRA, time 0): 1 (3×) and 1.4 (3×)
- von Frey paw withdrawal threshold, individual animals (Fig 5F) ([2]; PICK1-KO, CONTRA, time 1): 1.4 (3×) and 0.6 and 2 and 1
- von Frey paw withdrawal threshold, individual animals (Fig 5F) ([2]; PICK1-KO, CONTRA, time 5): 1 and 1.4 (3×) and 2 (2×)
- von Frey paw withdrawal threshold, individual animals (Fig 5F) ([2]; PICK1-KO, injured side, BL): 1.4 (4×) and 2 and 1
- von Frey paw withdrawal threshold, individual animals (Fig 5F) ([2]; PICK1-KO, injured side, time 0): 0.6 and 0.07 and 0.4 (2×) and 0.16 (2×)
- von Frey paw withdrawal threshold, individual animals (Fig 5F) ([2]; PICK1-KO, injured side, time 1): 0.4 (2×) and 0.16 (3×) and 0.07
- von Frey paw withdrawal threshold, individual animals (Fig 5F) ([2]; PICK1-KO, injured side, time 5): 0.16 (2×) and 0.07 (3×) and 0.4
- von Frey paw withdrawal threshold, individual animals (Fig 5F) ([2]; PICK1-WT, CONTRA, BL): 1 (2×) and 1.4 (4×)
- von Frey paw withdrawal threshold, individual animals (Fig 5F) ([2]; PICK1-WT, CONTRA, time 0): 1.4 (4×) and 1 and 2
- von Frey paw withdrawal threshold, individual animals (Fig 5F) ([2]; PICK1-WT, CONTRA, time 1): 1.4 (3×) and 1 (2×) and 2
- von Frey paw withdrawal threshold, individual animals (Fig 5F) ([2]; PICK1-WT, CONTRA, time 5): 1.4
- von Frey paw withdrawal threshold, individual animals (Fig 5F) ([2]; PICK1-WT, injured side, BL): 1 (2×) and 1.4 (3×) and 2
- von Frey paw withdrawal threshold, individual animals (Fig 5F) ([2]; PICK1-WT, injured side, time 0): 0.07 (2×) and 0.16 (3×) and 0.4
- von Frey paw withdrawal threshold, individual animals (Fig 5F) ([2]; PICK1-WT, injured side, time 1): 1.4 (4×) and 1 (2×)
- von Frey paw withdrawal threshold, individual animals (Fig 5F) ([2]; PICK1-WT, injured side, time 5): 0.6 (2×) and 0.4 (3×) and 1
- effect on mechanical hypersensitivity (PWT) ([2]; WT littermates following SNI surgery): significantly reduced
